“Also recorded” adds a separate entry of the source. Non-standard residues stand in square brackets, D forms with d.
Columns and labels:
apoe null mice = settings: oral DMPC; cited from earlier work
[1] = system: facial artery of LDL receptor null mice; assay: Facial artery ring vasoreactivity, acetylcholine relaxation after oral treatment; format: in vivo; settings: Western diet, 1 mg/mL in drinking water, six weeks
mouse facial artery = settings: published studies; cited from earlier work
[2] = system: brain arteriolar smooth muscle α-actin; assay: Brain arteriolar smooth muscle α-actin immunostaining, wall to lumen ratio; format: in vivo; settings: LDL receptor null mice, Western diet 6 weeks, 300 μg/mL in drinking water; D-4F vs scrambled D-4F
Description: (§1) Female wild-type and LDL receptor null C57BL/6 mice were from Jackson Laboratories (Bar Harbour, Me.). The mice were maintained on a chow diet (Ralston Purina) prior to administration of a Western diet (Teklad/Harlan, Madison Wis., diet No. 88137; 42% fat, 0.15% cholesterol, w/w). For studies of brain arterioles the mice were anesthetized with intramuscular ketamine (100 mg/kg) and acepromazine (2.5 mg/kg) and the heart was perfused via the left ventricle with 25 mL phosphate buffered saline (PBS) containing heparin (10 U/mL) followed by 100 mL of 4% paraformaldehyde (PFA) in PBS at pH 7.4 as described by Fernagut et al. (Fernagut et al. (2002) Neuroscience, 114: 1005-1017; Fernagut et al. (2004) Exp Neurol., 185: 47-62). […]
(§2) Morphometry was performed to determine vascular wall thickness for all arterioles that were distended and perpendicularly cross-sectioned. […] A minimum of 10 arteries from each diameter group was examined in the cortical area and the deep white matter regions from each brain, and the wall thickness and wall to lumen ratios determined. The ratio of immunoreactive media thickness to the internal diameter of each vessel was assessed in sections immunostained for smooth muscle α-actin. […] Inter-observer variation was determined by having the three investigators measure the same 20 arterioles for wall thickness and lumen diameter and calculate the wall to lumen ratio. […]

[3] = system: brain arterioles of LDL receptor null mice; assay: Brain arteriolar wall thickness and lumen diameter by morphometry on H&E sections; format: in vivo; settings: Western diet 6 weeks, 300 μg/mL in drinking water, D-4F vs scrambled D-4F
Description: as §1, with “47-62). Brains were quickly removed and stored for 24 hrs in 4% PFA at 4° C. and then transferred to 10% sucrose in PBS (pH 7.4) and left until they sank to the bottom of the solution. The right half of the brains were embedded in OCT (Tissue-Tek; Miles Laboratories Ltd, Elkhart Ind.) and frozen in isopentane at −40° C. and stored at −80° C. until sectioned in a cryostat at −20° C. The frozen brain was cut into 8 μm sections coronally to include the underlying white matter and stained with hematoxylin-eosin (H&E) and for smooth muscle α-actin (Serotec, Raleigh, N.C.).” for “47-62).”
as §2

[4] = Plasma lipoprotein and lipid levels; format: in vivo, mice
Description: Plasma lipoprotein and lipid levels were determined as described previously (Navab et al. (2004) Circulation, 109:r120-r125; Navab et al. (2005) Arterioscler Thromb Vasc Biol., 25: 1-7).

LDL receptor null mice = assay: T-maze continuous alternation task (T-CAT), spatial memory; format: in vivo
Description: T-maze continuous alternation task (T-CAT) testing took place daily between 9 A.M. and 4 P.M. and was performed by one investigator unaware of the treatment groups. The mice were delivered to the testing room two hours prior to behavioral studies to allow familiarization with the extra-maze visual cues of the room. The T-maze apparatus used in our studies is identical to the one described by Gerlai et al. (Gerlai (1998) Behavioural Brain Research, 95: 91-101) and was made of transparent acrylic walls with a black acrylic bottom. The dimensions of start and goal arms were: length 75 cm, width 12 cm and height 20 cm. The maze was equipped with three removable guillotine doors that could be operated by manual remote control. The testing room was illuminated by ceiling and floor lights and a fan provided a constant background noise. The T-maze was separated from the investigator by a black curtain and the movement of the mice in the maze was observed on a TV monitor and videotaped. After each individual mouse the T-maze was carefully cleaned with Windex spray and dried with paper towels. The T-maze continuous alternation task (T-CAT) limits the handling of mice and permits their exploratory behavior to be carried out undisturbed. The procedure used in this study is identical to that described by Gerlai et al. (Id.) and consisted of one forced and 14 free choice trials. Consecutive choices made by the mice were measured and the alternation rate during the 14 free choice trials was calculated (0%-no alternation, 100%-alternation at each trial, 50%-random choice). The time (in seconds) needed to complete the 15 trials was recorded and analyzed. The T-CAT testing was continuously registered by a video tracking system (SD Instruments Inc., San Diego, Calif.) and stored on a computer. Statistics were performed using StatView software (SAS Institute, Cary, N.C.)

LDL lipid hydroperoxides = settings: mice, oral D-4F, without changing plasma lipid levels; cited from earlier work
[5] = LDL receptor null mice, Western diet 6 weeks, 300 μg/mL in drinking water, Mean±SEM

| Molecule | HDL-cholesterol (apoe null mice) | atherosclerosis (apoe null mice) | plasma apoA-I levels (apoe null mice) | acetylcholine vasorelaxation of facial artery rings [1] | vasoreactivity of facial arteries (mouse facial artery) | brain arteriolar wall smooth muscle α-actin content [2] | brain arteriolar wall thickness [3] | lumen diameters of the brain arterioles [3] | ratio of wall to lumen diameter [3] | difference in plasma total cholesterol, LDL-cholesterol, HDL-cholesterol or triglycerides ([4]; D-4F compared to scrambled D-4F) | HDL cholesterol concentration [4, 5] [mg/dL] | LDL cholesterol concentration [4, 5] [mg/dL] | Triglycerides [4, 5] [mg/dL] | plasma total cholesterol concentration [4, 5] | performance in the T-maze / T-CAT (spatial memory) (LDL receptor null mice; LDL receptor null mice, Western diet, oral treatment) | time to complete the 15 trials (LDL receptor null mice; LDL receptor null mice, Western diet, oral treatment, difference not statistically significant) [s] | performance in the T-maze / T-CAT (spatial memory) (LDL receptor null mice; LDL receptor null mice, Western diet, oral treatment, listed as D4F) | number of spontaneous alternations in the T-maze test (LDL receptor null mice; LDLR−/− mice, Western diet six weeks, 300 μg/mL in drinking water) | LDL lipid hydroperoxides (LDL lipid hydroperoxides) |
| --- | --- | --- | --- | --- | --- | --- | --- | --- | --- | --- | --- | --- | --- | --- | --- | --- | --- | --- | --- |
| CCCCCCCCCCCCCC(=O)OCC(COP(=O)([O-])OCC[N+](C)(C)C)OC(=O)CCCCCCCCCCCCC (racemic) [DMPC, 1,2-ditetradecanoyl-rac-glycerol-3-phosphocholine] | increase | prevention and regression | increase | significant improvement; also recorded: improves | – | – | – | – | – | – | – | – | – | – | – | – | – | – | – |
| Ac-D-W-F-K-A-F-Y-D-K-V-A-E-K-F-K-E-A-F-NH2 [4F] (Ac-DWFKAFYDKVAEKFKEAF-NH2) [Peptide 4F] | – | – | – | – | dramatically improved | – | – | – | – | – | – | – | – | – | – | – | – | – | – |
| Ac-D-W-F-K-A-F-Y-D-K-V-A-E-K-F-K-E-A-F-NH2 [D-4F] (Ac-[dD][dW][dF][dK][dA][dF][dY][dD][dK][dV][dA][dE][dK][dF][dK][dE][dA][dF]-NH2) [Peptide D-4F, apoA-I mimetic peptide] | – | – | – | – | improved | significantly reduced | decreased; also recorded: reduced | no difference | significantly less | no significant difference | 86 ± 6 | 924 ± 76 | 330 ± 25 | 1,076±75 mg/dL | significantly improved | 548 ± 37 | improvement | significantly improved | decrease |

From patent publication US8236754B2, “Methods for improving the structure and function of arterioles” (The Regents of the University of California, priority 2004, dated 2012)
